Experimental findings from PubChem BioAssay (NCI) are described below.

Broadly, the TGI is the concentration giving total growth inhibition. Lower therefore signals more potent growth arrest.

Common to all, as to experiment: DTP human tumour cell line panel, 48 h
Assay [1] deals with K-562 leukemia.
In assay [2] the test system is SK-MEL-28 melanoma.
The subject of assay [3] is HOP-62 NSCLC.
For assay [4], the system named is SR leukemia.
The subject of assay [5] is LOX IMVI melanoma.
Assay [6] has as its system HCT-116 colon.
Assay [7] relates to RPMI-8226 leukemia.
In assay [8] the test system is HT29 colon.
The test system of assay [9] is MOLT-4 leukemia.
Assay [10] deals with TK-10 renal.
Assay [11] relates to SN12C renal.
The subject of assay [12] is A549 NSCLC.
Assay [13] concerns HCC-2998 colon.
For assay [14], the system named is MDA-MB-435.
The subject of assay [15] is HOP-18 NSCLC.
For assay [16], the system named is BT-549 breast.
Assay [17] deals with SNB-19 CNS.
Assay [18] has as its system NCI-H460 lung.
Assay [19] concerns UACC-257 melanoma.
In assay [20] the test system is 786-0 renal.

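All cell lines were grown in 96-well plates and treated with compound for 48 hours. TGI: total growth inhibition.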

For the molecule `N#Cc1cc([N+](=O)[O-])ccc1NC(=O)/C(=N\NC(=O)c1ccncc1)C(c1cnc2ccc([N+](=O)[O-])cc2n1)[N+](=O)[O-]` (centres undefined), the total growth inhibition concentration (TGI) in assay [1] stood at 6.4 µM; in [2], 4.81 µM; in [3], 6.8 µM; in [4], 46.8 µM; in [5] it was 2.23 µM; in [6] it was 7.33 µM. Besides, the concentration for total growth inhibition (TGI) in assay [7] came to 41.7 µM; in assay [8], 41.8 µM; in assay [9], 22.9 µM; in assay [10] it was 28.3 µM; in assay [11], 3.71 µM; in [12], 15.8 µM. The concentration for total growth inhibition (TGI) was determined as 22.2 µM in assay [13]; 2.59 µM in assay [14]; 2.87 µM in assay [15]; 3.55 µM in assay [16]; 8.16 µM in [17]; 8.17 µM in [18]. Further, the values for the concentration for total growth inhibition (TGI) in [19] and in assay [20] were 3.05 µM and 6.16 µM, respectively.
As for `O=C(Nc1cccc(C(F)(F)F)c1)C(=O)C1NC(=S)NC1=O` (centres undefined), the concentration for total growth inhibition (TGI) in assay [1], in assay [2], in [3], in assay [4], in assay [5] and in assay [6] was over 100 µM throughout. The TGI in assay [7], in assay [8], in assay [9], in assay [10], in assay [11] and in [12] was over 100 µM in each case. The total growth inhibition concentration (TGI) in assay [13], in assay [15], in [17], in [18], in assay [19] and in [20] was over 100 µM in each case.
For the molecule `O=C1C=CC(=O)c2c1ccc1c3ccccc3n(-c3ccccc3)c21`, the total growth inhibition concentration (TGI) is 5.08 µM in [1]; 14.4 µM in assay [2]; 37.7 µM in assay [3]; 1.31 µM in assay [4]; 20.1 µM in assay [5]; 7.03 µM in assay [6]. Also, the total growth inhibition concentration (TGI) in [7] was found to be 4.59 µM; in assay [8], 37 µM; in assay [9] it was 2.89 µM; in assay [10], 17.8 µM; in assay [11], 26.6 µM; in assay [12], 44.2 µM. In addition, the total growth inhibition concentration (TGI) in [13] is 50.6 µM; in assay [14], 30.3 µM; in assay [15] it was 20.7 µM; in [16], 27 µM; in assay [17], 43.7 µM; in [18] it was 34.6 µM. Further, the figures for the total growth inhibition concentration (TGI) in assay [19] and in assay [20] were 19.2 µM and 33 µM, respectively.
As to `NC(=O)/C(=N\NC(=O)C[n+]1ccccc1)C1NC(=O)NC1=O` (centres undefined), the concentration for total growth inhibition (TGI) in assay [1], in assay [2], in assay [3], in assay [4], in [5] and in [6] was over 100 µM each time. Besides, the total growth inhibition concentration (TGI) in assay [7], in assay [8], in assay [9], in assay [10], in [11] and in assay [12] was over 100 µM throughout. The TGI in [13], in assay [15], in [17], in assay [18], in [19] and in assay [20] was over 100 µM each time.
Consider `COc1cc(O)c2c(c1)O[C@@H]1OCC[C@H]21`, for which the TGI in [1], in assay [2], in [3], in assay [4], in [5] and in assay [6] was over 100 µM throughout. The TGI in assay [7], in assay [8], in assay [9], in assay [10], in [11] and in assay [12] was over 100 µM in each case. For the same molecule, the TGI in [13], in [15], in [17], in assay [18], in assay [19] and in assay [20] was over 100 µM in each case.
